Each structure is given as a SMILES string.

Data on 3 compounds can be found in ChEMBL document CHEMBL1136378, “Novel 6,7-diphenyl-2,3,8,8a-tetrahydro-1H-indolizin-5-one analogues as cytotoxic agents” (Bioorg Med Chem Lett, 2003).

Data set [1] in a line: Tmax value was determined at a dose of 100 mg/kg (i.p.) in Mice. Also on record: dose 100 mg/kg, route intraperitoneal. To be noted: mouse, in vivo, ip. Format: ADME, organism-based.
Data set [2] in a line: Cmax value was determined at a dose of 100 mg/kg (i.p.) in Mice. Format: ADME, organism-based. Also on record: dose 100 mg/kg, route intraperitoneal. To be noted: mouse, in vivo, ip.
In data set [3] the test system is U-251. The data set is described as follows: In vitro cytotoxic activity tested against human CNS (U251) cell line. Format: functional.
For data set [4], the system named is SW-620. Kind of data set: In vitro cytotoxic activity tested against human colon cancer (SW620) cell line. The class given is functional.
Data set [5] concerns M14. The data set is described as follows: In vitro cytotoxic activity was tested against human melanoma cancer (M14) cell line. Format: functional.
Data set [6] concerns SK-OV-3. Kind of data set: In vitro cytotoxic activity tested against human ovarian cancer (SK-OV3) cell line. Format: functional.
The test system of data set [7] is DU-145. Kind of data set: In vitro cytotoxic activity tested against human prostate cancer (DU145) cell line. Format: functional.
In data set [8] the test system is A498. Kind of data set: In vitro cytotoxic activity was tested against human renal cancer (A498) cell line. Format: functional.
Data set [9] in a line: Average growth inhibition against cell lines was calculated. Format: functional.
Data set [10] can be described thus: Area under curve was determined at a dose of 100 mg/kg (i.p.) in Mice. The class given is ADME, organism-based. To be noted: mouse, in vivo, ip. Set-up: dose 100 mg/kg, route intraperitoneal.
The test system of data set [11] is NCI-H522. Kind of data set: In vitro cytotoxic activity tested against human lung cancer (H-522) cell line.
Data set [12] has as its system NCI/ADR-RES. Kind of data set: In vitro cytotoxic activity tested against human breast cancer MCF/ADR cell line.
Data set [13] can be described thus: Tmax value was determined at a dose of 200 mg/kg (i.p.) in Mice. Format: ADME, organism-based. Also on record: dose 200 mg/kg, route intraperitoneal. To be noted: mouse, in vivo, ip.
Data set [14] can be described thus: Cmax value was determined at a dose of 200 mg/kg (i.p.) in Mice. Format: ADME, organism-based. Set-up: dose 200 mg/kg, route intraperitoneal. To be noted: mouse, in vivo, ip.
A short description of data set [15]: Area under curve was determined at a dose of 200 mg/kg (i.p.) in Mice. To be noted: mouse, in vivo, ip. Set-up: dose 200 mg/kg, route intraperitoneal. Format: ADME, organism-based.
Data set [16] has as its system A498. Kind of data set: In vitro cytotoxic activity against human renal cancer (A498) cell line. The class given is functional.
In data set [17] the test system is DU-145. Kind of data set: In vitro cytotoxic activity against human prostate cancer (DU145) cell line. The class given is functional.
The test system of data set [18] is M14. Kind of data set: In vitro cytotoxic activity against human melanoma cancer (M14) cell line. The class given is functional.
For data set [19], the system named is NCI/ADR-RES. The data set is described as follows: In vitro cytotoxic activity against human breast cancer MCF/ADR cell line. The class given is functional.
In data set [20] the test system is SK-OV-3. The data set is described as follows: In vitro cytotoxic activity against human ovarian cancer (SK-OV3) cell line. Format: functional.
In data set [21] the test system is SW-620. The data set is described as follows: In vitro cytotoxic activity against human colon cancer (SW620) cell line. Format: functional.
Data set [22] is described as follows: Half life beta(2,4,6,8h) value was determined at a dose of 200 mg/kg (i.p.) in Mice. The class given is ADME, organism-based. Also on record: dose 200 mg/kg, route intraperitoneal. To be noted: mouse, in vivo, ip, read-out: T1/2 beta (converted).
The test system of data set [23] is NCI-H522. The data set is described as follows: In vitro cytotoxic activity against human lung cancer (H-522) cell line.

Regarding `CSc1ccc(C2=C(c3ccc(F)c(F)c3)C(=O)N3CCCC3C2)cc1` (stereo not drawn), the Tmax in data set [1] was found to be 0.29 h. In [2], this compound had a Cmax of 3.61 µM. Besides, the GI50 in data set [3] came to 15 µM; in [4], 0.2 µM; in data set [5], 0.3 µM; in data set [6] it was 0.1 µM; in data set [7], 0.5 µM; in data set [8] it was 0.1 µM. The GI50 in data set [9] is 2.1 µM; in data set [11], 0.2 µM; in data set [12] it was 0.8 µM. This compound also yielded an AUC in data set [10] of 6.92 µM·h.
`CSc1ccc(C2=C(c3ccc(C(F)(F)F)cc3)C(=O)N3CCCC3C2)cc1` (stereo not drawn): the Tmax in data set [13] was determined as 0.25 h. Also, the Cmax in data set [14] was found to be 3.79 µM. Besides, the AUC in [15] amounted to 10.7 µM·h. In addition, the GI50 in data set [16] is 20 µM; in data set [3] it was 0.8 µM; in [17], 0.7 µM; in data set [18], 12 µM; in data set [19], 0.8 µM; in data set [20], 15 µM. Besides, the 50% growth inhibitory concentration (GI50) is 0.8 µM in data set [21], 6.3 µM in data set [9] and 0.8 µM in [23]. Besides, the half-life in data set [22] is 2.66 h.
For `CSc1ccc(C2=C(c3ccc(F)cc3)C(=O)N3CCCC3C2)cc1` (stereo not drawn), in data set [13], the time of peak concentration (Tmax) was found to be 1.5 h. In data set [14], this compound returned a Cmax of 0.99 µM. In [15], this compound displayed an AUC of 3.88 µM·h. For the same compound, the GI50 in data set [3] worked out at 0.09 µM; in [4], 0.5 µM; in data set [5] it was 0.6 µM; in [6] it was 30 µM; in [7], 0.5 µM; in data set [8] it was 0.1 µM. In addition, the values for the GI50 in data set [9], in data set [11] and in data set [12] were 4.1 µM, 0.25 µM and 0.8 µM, respectively. Also, the half-life in [22] was 2.59 h.

As a reminder, the Tmax is the time at which the peak concentration occurs. As a reminder, the Cmax is the highest concentration seen after dosing. As a reminder, the GI50 is the concentration giving 50% growth inhibition. One may read the AUC as the area under the concentration-time curve, a measure of exposure. Low readings indicate less exposure, high ones more exposure.
